# Tests used:
# Assay type in all cases: cell-based, human
# HUVEC [1] = experiment: HUVEC spreading (projected cell area) on SAM array spots presenting GRGDSP
# Method: For cell assays on SAM arrays, HUVECs or hMSCs were removed from plastic culture plates using a 0.05% trypsin solution, resuspended in media, and seeded onto SAM arrays in sterile polystyrene Petri dishes. After allowing cells to attach for ˜1 hour in a humidified incubator at 37° C. and 5% CO2, arrays were dipped in warm media to remove loosely attached cells and then transferred to a rectangular multidish (Thermo Scientific/Nunc, Rochester, N.Y.) with warm media and imaged ˜4 hours later serving as “0 hr.” For the initial time point and subsequent time-lapse imaging, arrays were placed on an incubated stage and each array spot was imaged every 15 minutes for 72 hours. Furthermore, it is important to point out that all cell experiments for comparison between HUVECs and hMSCs were run simultaneously.
# For immunocytochemistry, at 24 and 72 hour time points during the time-lapse experiment, staining for the actin cytoskeleton and focal adhesion markers was performed as directed by the manufacturer (Catalog No. FAK100, Millipore, Billerica, Mass.). […]
# Relative cell attachment at 0 hrs was quantified by counting the number of attached cells per spot and normalizing cell numbers to maximal attachment conditions. Normalized cell number was calculated by dividing the number of cells per spot at 72 hours (C72) to the cell number observed on the same spot at 0 hrs (C0). Relative proliferation was determined by dividing normalized cell numbers at 72 hours by the maximum average normalized cell number observed across GRGDSP density conditions. Similarly, relative spreading was determined by dividing projected cell areas to the maximum average projected cell area observed across GRGDSP density conditions. […] For each spot, average cell projected area was calculated by dividing the thresholded actin staining (red channel) by the total number of nuclei in the same spot. […]
# Specifically, SAM arrays were prepared as described above. […] Cell spreading was determined by culturing HUVECs and hMSCs for 24 hours and 72 hours and analyzed by cell staining and quantified by measuring projected cell area. […]
# hMSC [2] = experiment: hMSC spreading (projected cell area) on SAM array spots presenting GRGDSP; conditions: hMSCs
# Method: (§1) For cell assays on SAM arrays, HUVECs or hMSCs were removed from plastic culture plates using a 0.05% trypsin solution, resuspended in media, and seeded onto SAM arrays in sterile polystyrene Petri dishes. After allowing cells to attach for ˜1 hour in a humidified incubator at 37° C. and 5% CO2, arrays were dipped in warm media to remove loosely attached cells and then transferred to a rectangular multidish (Thermo Scientific/Nunc, Rochester, N.Y.) with warm media and imaged ˜4 hours later serving as “0 hr.” For the initial time point and subsequent time-lapse imaging, arrays were placed on an incubated stage and each array spot was imaged every 15 minutes for 72 hours. […]
# (§2) Relative cell attachment at 0 hrs was quantified by counting the number of attached cells per spot and normalizing cell numbers to maximal attachment conditions. Normalized cell number was calculated by dividing the number of cells per spot at 72 hours (C72) to the cell number observed on the same spot at 0 hrs (C0). Relative proliferation was determined by dividing normalized cell numbers at 72 hours by the maximum average normalized cell number observed across GRGDSP density conditions. Similarly, relative spreading was determined by dividing projected cell areas to the maximum average projected cell area observed across GRGDSP density conditions. […]
# HUVEC [3] = experiment: HUVEC proliferation (normalized cell number C72/C0) on SAM array spots presenting GRGDSP; conditions: HUVECs, 72 hours
# Method: as §1, §2
# hMSC [4] = experiment: hMSC proliferation (normalized cell number C72/C0) on SAM array spots presenting GRGDSP; conditions: hMSCs, 72 hours
# Method: as §1, §2
# HUVEC [5] = experiment: HUVEC migration (single cell tracking) on SAM array spots presenting GRGDSP; conditions: HUVECs
# Method: as §1, §2
substance,measurement,setting,value
GRGDSP,maximal HUVEC spreading (projected cell area),"HUVEC [1]; 72 hours, SAM spots with 1.67% and 5% GRGDSP",6000 μm^2
same,maximal projected cell area,"HUVEC [1]; HUVECs, 24 hrs, SAM spots with 1.6% and 5% GRGDSP",greater than 4000 μm^2
same,change in projected cell area from 24 to 72 hrs,"HUVEC [1]; HUVECs, all GRGDSP densities above 0.06%",increasing their projected cell area
same,maximal projected cell area,"hMSC [2]; 24 hrs, SAM spots with 1.6% and 5% GRGDSP",greater than 4000 μm^2
same,change in projected cell area from 24 to 72 hrs,hMSC [2]; across several GRGDSP densities,slight decreases
same,maximum normalized cell number (C72/C0),HUVEC [3]; across GRGDSP densities,1.6
same,proliferation,HUVEC [3]; below 0.06% GRGDSP,no proliferation
same,maximum normalized cell number (C72/C0),hMSC [4]; across GRGDSP densities,6.1
same,proliferation,hMSC [4]; below 0.06% GRGDSP,no proliferation
same,fraction of migrating cells,HUVEC [5]; high GRGDSP densities,virtually no cells migrating
same,fraction of migrating cells,HUVEC [5]; lower GRGDSP densities,over 30%
